The subject of experiment [1] is ICAM-1. In words: Immunohistochemistry of aortic wall, ICAM-1. The format is in vivo, mice. As to conditions: for aorta (ICAM-1) signal expression in blood vessels: IHC-P×400, single animal micrograph; for ICAM-1 average optical density: aortic wall. An excerpt: Methods: SPF grade C57BL/6 ApoE −/−model mice were provided by Guangdong Medical Experimental Animal Center, laboratory animal production license No. SOCK (Guangdong) 2013-0002. Laboratory animal quality certificate number: 44007200048196). Mice were half male and half female, aged 8 to 12 weeks, and 72 animals in total. After four weeks of housing in a SPF-level animal facility, animals with less body weights were disposed. A total of 64 animals were randomly divided into 8 groups, 8 in each group, fed with 10% high-fat food, and received with different treatments. Animals were observed and administered with the medicines by gavage once daily. The body weights were measured once a week and continued for 58 days. […] The test sample was dissolved in dimethyl sulfoxide solution and prepared with 30% PEG300.
After blood collection, the animals were sacrificed, and the aortic arch together with the heart and thoracic aorta were fixed with neutral formaldehyde and subject to pathological examination. The abdominal aorta was collected and quick-frozen in liquid nitrogen, and stored at −80° C.
c) Immunohistochemistry: The thoracic aorta was sliced and detected by immunohistochemistry for the expression of CD68, intercellular adhesion molecule-1 (ICAM-1), and vascular cell adhesion Molecule-1 (VCAM-1).

The subject of experiment [2] is atherosclerosis model induced by high-fat diet in ApoE knockout mice. The experiment is described as follows: Ratio of atherosclerotic plaque area to total inner wall area of the aorta (En-Face, oil red; Example 2). The format is in vivo. An excerpt: Methods: A total of 130 SPF grade C57BL/6 ApoE −/− model male mice aged 8 weeks were purchased from Charles River Laboratories (Beijing, China) (animal license number: SCXK (Beijing) 2016-0001, animal qualification certificate No.: 11400700331337). After one week of acclimatization in a SPF-grade animal facility, the animals with less weights were discarded and the rest was randomly divided into 11 groups, with 8 animals in each group. Except for the healthy control group, the rest were fed with 10% high-fat food (the first day of the high-fat diet was recorded as D1). Starting from the 8th week of the high-fat diet, each group of animals was orally given solvents or corresponding drugs, and the volume of administration was 10 ml/kg, once a day for 8 weeks. Animals were observed and administered by gavage once a day and the body weight were measured once a week for 56 days. […] The store solution of the test samples was dissolved in dimethyl sulfoxide solution and prepared with 30% PEG300.
Immediately after blood was taken from the heart, it was perfused through the left ventricle with 20 ml of normal saline. After bloodletting, the heart and aorta (from the aortic arch to the iliac artery) were isolated. The isolated artery was cut longitudinally from the aortic arch to the iliac artery, fixed in 4% paraformaldehyde for 30 minutes, synchronized with 60% isopropanol for 10 minutes, stained in 60% oil red for 30 minutes, and washed by 60% isopropanol 3 times, 5 minutes each time. Finally, the colored aorta was washed with deionized water and photographed. The proportion of the red plaque area was measured by Image Pro Plus 6.0 (Media Cybernetics, MD, US). The heart samples were fixed in 4% paraformaldehyde solution overnight and then placed in sucrose solution for dehydration. Then, it was embedded with OCT (Sakura, Japan) under a stereo microscope and made into 7 μm frozen sections. After HE staining, the slices were used for routine pathological examination. The outflow tract images were collected under an optical microscope at 4* magnification, and 4*, 10*, 20* and 40* magnification eyepieces were used for high-quality morphological observation. The detection standard referred to the histological classification standard of human atherosclerosis disease.
Evaluate the effect of different therapeutic drugs by the ratio of the area of atherosclerotic plaque to the total area of the inner wall of the aortic vessel (En-Face)
We adopted the widely accepted standard for the severity of arteriosclerosis in animal models, and analyzed the area of all plaques on the inner wall of the aorta. […] FIGS. 46A and 46B are histograms of the ratios of plaque area on the inner wall of the aorta in each treatment group. The values in FIGS. 46A and 46B are the ratios of plaques to the total area of the inner wall in each group, and the error is standard error±SEM. The statistical significance analysis is as follows: ***P<0.001 compared with the normal control group; #P<0.05 compared with the vehicle group; ##P<0.01, ###P<0.001, compared with the vehicle group through one-way ANOVA Dunnett's test; & represents P<0.05, compared with the vehicle group by t test.

Consider `O=c1[nH]c2ccccc2n1C1CCN(CCCC(c2ccc(F)cc2)c2ccc(F)cc2)CC1` [Sample A], for which the “aorta (ICAM-1) signal expression in blood vessels” value in experiment [1] (2 mg/kg), in experiment [1] (5 mg/kg) and in experiment [1] (10 mg/kg) was “low to medium” in each case. Besides, the “ICAM-1 average optical density” value in experiment [1] (2 mg/kg gavage QD, 2 mg/kg) is reported as 2.11 ± 1.53 ×10^−2; in experiment [1] (2 mg/kg gavage QD, listed as sample A, 2 mg/kg), “lower than the model control group”; in experiment [1] (5 mg/kg gavage QD, 5 mg/kg) it was 2.31 ± 1.16 ×10^−2; in experiment [1] (5 mg/kg gavage QD, listed as Nib1, 5 mg/kg), “reduced expression”; in experiment [1] (5 mg/kg gavage QD, listed as sample A, 5 mg/kg), “lower than the model control group”; in experiment [1] (10 mg/kg gavage QD, 10 mg/kg), 1.75 ± 1.46 ×10^−2. The “ICAM-1 average optical density” value in experiment [1] (10 mg/kg gavage QD, listed as sample A, 10 mg/kg) was “lower than the model control group”.

Consider `O=C(N/N=C/c1coc2ccccc2c1=O)c1cccnc1` [Sample B], for which the “aorta (ICAM-1) signal expression in blood vessels” value in experiment [1] (1 mg/kg), in experiment [1] (2 mg/kg) and in experiment [1] (5 mg/kg) was “low to medium” each time. The “ICAM-1 average optical density” value is 2.44 ± 1.19 ×10^−2 in experiment [1] (1 mg/kg gavage QD); 1.31 ± 1.40 ×10^−2 in experiment [1] (2 mg/kg gavage QD, 2 mg/kg); “reduced expression” in experiment [1] (2 mg/kg gavage QD, listed as Nib2, 2 mg/kg); “lower than the model control group” in experiment [1] (2 mg/kg gavage QD, listed as sample B, 2 mg/kg); 3.98 ± 1.64 ×10^−2 in experiment [1] (5 mg/kg gavage QD). Also, the “Mean of Plaque Ratio (plaque area to total inner wall area of aorta)” value in experiment [2] (2 mpk PO QD 8 weeks, high-fat diet) stood at 11.22%. Moreover, in experiment [2] (different doses, Example 2), the “symptoms of atherosclerosis under therapeutic intervention (mainly plaque area ratio)” value is given as “significantly alleviate the symptoms of atherosclerosis”.
